Results from patent publication EP4772510A2, “BENZAZEPINONE COMPOUND AND USE THEREOF” (HANGZHOU BIO-SINCERITY PHARMA-TECHCO., LTD., priority 2023, dated 2025).

Experiments:
HT-29 cells = assay: Inhibition of TNF-α-induced necroptosis of HT-29 cells (SRB method); assay type: cell-based, human; conditions: Homo sapiens, HT-29, TNF-α 20 ng/mL + BV6 2 µM + Z-VAD-FMK 20 µM, 18 h
Description: Example 57: Inhibition of TNF-α-Induced Necroptosis of HT-29 Cells by Compounds
• 1. Experimental reagents: McCOY's 5A culture medium, fetal bovine serum, penicillin-streptomycin, trypsin, PBS, TNF-α (MCE, HY-P7058), BV6 (MCE, HY-16701), Z-VAD-FMK (MCE, HY-16658B), SRB kit (Shanghai BestBio Biotechnology Co., Ltd., BB-4208-500T). • 2. Experimental instruments: medical low-temperature freezer (Thermo Fisher scientific, 902-ULTS), electrically heated thermostatic water bath (Shanghai Bluepard Instruments Co., Ltd., CD-420), low-speed centrifuge (ANHUI USTC Zonkia Scientific Instruments Co., Ltd, SC-3616), carbon dioxide incubator (Shanghai Bluepard Instruments Co., Ltd., BPN-150CH(UV)), inverted microscope (Olympus, CKX53), multi-functional microplate reader (Thermo Tecan, SPARK), class-II biosafety cabinet (AIRTECH, BSC-1304IIA2), and desktop cell counter (Thermo Fisher Scientific, Countess II). • 3. Cell culturing: HT-29 cells (human colon cancer cells) were cultured in a McCOY's 5A culture solution containing 10% fetal bovine serum and 1% penicillin-streptomycin solution in a 5% CO 2 at 37 °C and a saturated humidity, and culture medium changes and cell passaging were performed 3-4 times a week. • 4. […] The culture medium, trypsin, etc., were taken out from the freezer and transferred to the water bath for pre-heating. An appropriate amount of these substances was then taken for use. • (2) The old culture medium in the flask was aspirated using a sterile pipette and discarded, and the cells were washed 3 times with PBS. 1 mL of trypsin (25 cm^2 cell culture flask) was added into the flask, and the flask was gently shaken to allow the trypsin to cover all the cell surfaces. Digestion was performed in an incubator at 37 °C. After 2 min of digestion, the flask was placed under a microscope for observation. […] The mixture was gently pipetted using a pipette to homogenize the cells and thus prepare a single-cell suspension, and the cells were counted. • (5) The cells were diluted to 3 × 10^5/mL and seeded into a 96-well plate at 100 µL/well, such that there were 3 × 10^4 cells per well in the 96-well plate. The cells were incubated in a 5% CO2 incubator at 37 °C and a saturated humidity for 24 h, followed by the addition of compounds. • 4.2 Dilution and addition of compounds: • (1) TNF-α was dissolved in PBS to obtain a 100 µg/mL stock solution and aliquoted; Z-VAD-FMK was dissolved in DMSO to obtain a 10 mM stock solution and aliquoted; BV6 was dissolved in DMSO to obtain a 10 mM stock solution and aliquoted; GSK2982772 was dissolved in DMSO to obtain a 10 mM stock solution and aliquoted. One aliquot of each stock solution was stored at -20 °C for immediate use, while the remaining aliquots were stored at - 80 °C and used within their shelf life. • (2) McCOY's 5A culture solution containing TNF-α, BV6, and Z-VAD-FMK was prepared. For the positive control group and the test compound groups, the McCOY's 5A culture solution was added at 90 µL/well, and 10 µL of the culture medium containing the test compound was also added, thus making the final concentrations of TNF-α, BV6, and Z-VAD-FMK be 20 ng/mL, 2 µM, and 20 µM, respectively. For the DMSO (5‰) control group, 90 µL of the McCOY's 5A complete culture solution was added, and then 10 µL of DMSO was added, thus making the final concentration 5‰. • (3) Each target compound was three-fold diluted with a culture medium to 8 concentration gradients, with each concentration set in duplicate (10 µL/well). The final concentrations of each target compound were 1000.00/333.33/111.11/37.04/12.35/4.12/1.37/0.46 nM. • (4) The 96-well plate cultured for 24 h was taken out from the incubator, and the culture medium in the 96-well plate was carefully aspirated and discarded. A positive control group, test compound groups, and a DMSO (5‰) control group were set, and 10 µL of the corresponding compound was added to each group. […]

U937 cells = assay: Inhibition of TNF-α-induced necroptosis of U937 cells (CCK-8 assay); assay type: cell-based, human; conditions: Homo sapiens, U-937, TNF-α 20 ng/mL + BV6 2 µM + Z-VAD-FMK 20 µM, 18 h
Description: Example 56: Inhibition of TNF-α-Induced Necroptosis of U937 Cells by Compounds
• 1. Experimental reagents: RPMI-1640 culture medium, fetal bovine serum, penicillin-streptomycin, TNF-α (MCE, HY-P7058), BV6 (MCE, HY-16701), Z-VAD-FMK (MCE, HY-16658B), and CCK-8 (Dalian Meilun Biotech Co., Ltd., MA0218). • 2. Experimental instruments: medical low-temperature freezer (Thermo Fisher scientific, 902-ULTS), electrically heated thermostatic water bath (Shanghai Bluepard Instruments Co., Ltd., CD-420), low-speed centrifuge (ANHUI USTC Zonkia Scientific Instruments Co., Ltd, SC-3616), carbon dioxide incubator (Shanghai Bluepard Instruments Co., Ltd., BPN-150CH(UV)), inverted microscope (Olympus, CKX53), multi-functional microplate reader (Thermo Tecan, SPARK), class-II biosafety cabinet (AIRTECH, BSC-1304IIA2), and desktop cell counter (Thermo Fisher Scientific, Countess II). • 3. Cell culturing: U937 cells (human histiocytic lymphoma cells) were cultured in an RPMI-1640 culture solution containing 10% fetal bovine serum and 1% penicillin-streptomycin solution in a 5% CO2 incubator at 37 °C and a saturated humidity. The cell culture flask was vertically placed in the incubator. A T25 culture flask was used as an example, the culture solution in the flask was 6-8 mL, and culture medium changes and cell passaging were performed 3-4 times a week. • 4. […] The culture medium was taken out from the freezer and transferred to the water bath for pre-heating. An appropriate amount of culture medium was then taken for use. • (2) The cell suspension was transferred to a 15 mL sterile centrifuge tube and centrifuged at 850 rpm for 4 min to collect U937 cells. • (3) The supernatant was carefully discarded, and an appropriate amount of culture medium was added. The mixture was gently pipetted using a pipette to homogenize the cells and thus prepare a single-cell suspension, and the cells were counted. • (4) The cells were diluted to 4 × 10^5/mL and seeded into a 96-well plate at 90 µL/well, such that the cell density in the 96-well plate was 3.6 × 10 ^4 cells/well. The cells were incubated in a 5% CO 2 incubator at 37 °C and a saturated humidity for 6 h, followed by the addition of compounds. • 4.2 Dilution and addition of compounds: • (1) TNF-α was dissolved in PBS to obtain a 100 µg/mL stock solution and aliquoted; Z-VAD-FMK was dissolved in DMSO to obtain a 10 mM stock solution and aliquoted; BV6 was dissolved in DMSO to obtain a 10 mM stock solution and aliquoted; GSK2982772 was dissolved in DMSO to obtain a 10 mM stock solution and aliquoted. One aliquot of each stock solution was stored at -20 °C for immediate use, while the remaining aliquots were stored at - 80 °C and used within their shelf life. • (2) RPMI-1640 culture medium containing TNF-α, BV6, and Z-VAD-FMK was prepared (5 µL/per well), such that the final concentrations of TNF-α, BV6, and Z-VAD-FMK were 20 ng/mL, 2 µM, and 20 µM, respectively. • (3) Each target compound was three-fold diluted with a culture medium to 8 concentration gradients, with each concentration set in duplicate (5 µL/well). The final concentrations of each target compound were 1000.00/333.33/111.11/37.04/12.35/4.12/1.37/0.46 nM. • (4) The 96-well plate containing 90 µL of cell suspension was taken out from an incubator, and a positive control group, test compound groups, and a DMSO (5‰) control group were set. 5 µL of RPMI-1640 culture solution containing TNF-α, BV6, and Z-VAD-FMK and 5 µL of culture solution containing the test compound were added to the positive control group and the test compound groups. After compound addition, the mixtures were cultured for 18 h, followed by the CCK-8 assay. • (5) The 96-well plate was taken out, and the CCK-8 reagent was carefully added at 10 µL/well. The mixtures were incubated at 37 °C for 2-4 h, and the absorbance value was measured at a wavelength of 450 nm. • 5. Evaluation of inhibitory activity of compounds on TNF-α-induced necroptosis of U937 [formula] […]

Structure (SMILES)	EC50 (HT-29 cells) [nM]	EC50 (U937 cells) [nM]
Cn1cc(C#Cc2cc3c4c(c2)CCN4C(=O)C(NC(=O)c2ncn(Cc4ccccc4F)n2)CC3)cn1 (stereo not shown) [III-7, 1-(2-fluorobenzyl)-N-(9-((1-methyl-1H-pyrazol-4-yl)ethynyl)-4-oxo-1,2,3,4,6,7-hexahydroazepino[3,2,1-hi]indol-3-yl)-1H-1,2,4-triazole-3-carboxamide]	10 to 100	< 5
Cn1cc(C#Cc2cc3c4c(c2)CCN4C(=O)C(NC(=O)c2ncn(Cc4ccc(F)cc4)n2)CC3)cn1 (stereo not shown) [III-8, 1-(4-fluorobenzyl)-N-(9-((1-methyl-1H-pyrazol-4-yl)ethynyl)-4-oxo-1,2,3,4,6,7-hexahydroazepino[3,2,1-hi]indol-3-yl)-1H-1,2,4-triazole-3-carboxamide]	10 to 100	5 to 10
Cn1cc(C#Cc2cc3c4c(c2)CCN4C(=O)C(NC(=O)c2ncn(Cc4ccc(F)cc4F)n2)CC3)cn1 (stereo not shown) [III-9, 1-(2,4-difluorobenzyl)-N-(9-((1-methyl-1H-pyrazol-4-yl)ethynyl)-4-oxo-1,2,3,4,6,7-hexahydroazepino[3,2,1-hi]indol-3-yl)-1H-1,2,4-triazole-3-carboxamide]	< 5	< 5
Cn1cc(C#Cc2cc3c4c(c2)CCN4C(=O)C(NC(=O)c2ncn(Cc4cc(F)cc(F)c4)n2)CC3)cn1 (stereo not shown) [III-11, 1-(3,5-difluorobenzyl)-N-(9-((1-methyl-1H-pyrazol-4-yl)ethynyl)-4-oxo-1,2,3,4,6,7-hexahydroazepino[3,2,1-hi]indol-3-yl)-1H-1,2,4-triazole-3-carboxamide]	< 5	< 5
Cc1ccccc1Cn1cnc(C(=O)NC2CCc3cc(C#Cc4cnn(C)c4)cc4c3N(CC4)C2=O)n1 (stereo not shown) [III-13, N-(9-((1-methyl-1H-pyrazol-4-yl)ethynyl)-4-oxo-1,2,3,4,6,7-hexahydroazepino[3,2,1-hi]indol-3-yl)-1-(2-methylbenzyl)-1H-1,2,4-triazole-3-carboxamide]	5 to 10	< 5
Cc1ccc(Cn2cnc(C(=O)NC3CCc4cc(C#Cc5cnn(C)c5)cc5c4N(CC5)C3=O)n2)cc1 (stereo not shown) [III-14, N-(9-((1-methyl-1H-pyrazol-4-yl)ethynyl)-4-oxo-1,2,3,4,6,7-hexahydroazepino[3,2,1-hi]indol-3-yl)-1-(4-methylbenzyl)-1H-1,2,4-triazole-3-carboxamide]	5 to 10	< 5
O=C(NC1CCc2cc(C#CC3CCNCC3)cc3c2N(CC3)C1=O)c1ncn(Cc2c(F)cccc2F)n1 (stereo not shown) [III-15, 1-(2,6-difluorobenzyl)-N-(4-oxo-9-(piperidin-4-ylethynyl)-1,2,3,4,6,7-hexahydroazepino[3,2,1-hi]indol-3-yl)-1H-1,2,4-triazole-3-carboxamide]	< 5	< 5
CC(C)(C)OC(=O)N1CCC(C#Cc2cc3c4c(c2)CCN4C(=O)C(NC(=O)c2ncn(Cc4c(F)cccc4F)n2)CC3)CC1 (stereo not shown) [III-16, tert-butyl 4-((3-(1-(2,6-difluorobenzyl)-1H-1,2,4-triazole-3-carboxamido)-4-oxo-1,2,3,4,6,7-hexahydroazepino[3,2,1-hi]indol-9-yl)ethynyl)piperidine-1-carboxylate]	10 to 100	< 5
O=C(NC1CCc2cc(C#Cc3cnn(C(F)F)c3)cc3c2N(CC3)C1=O)c1ncn(Cc2cc(F)cc(F)c2)n1 (stereo not shown) [III-18, 1-(3,5-difluorobenzyl)-N-(9-((1-(difluoromethyl)-1H-pyrazol-4-yl)ethynyl)-4-oxo-1,2,3,4,6,7-hexahydroazepino[3,2,1-hi]indol-3-yl)-1H-1,2,4-triazole-3-carboxamide]	5 to 10	10 to 100
O=C(NC1CCc2cc(C#Cc3cnn(C(F)F)c3)cc3c2N(CC3)C1=O)c1ncn(Cc2ccc(F)cc2F)n1 (stereo not shown) [III-20, 1-(2,4-difluorobenzyl)-N-(9-((1-(difluoromethyl)-1H-pyrazol-4-yl)ethynyl)-4-oxo-1,2,3,4,6,7-hexahydroazepino[3,2,1-hi]indol-3-yl)-1H-1,2,4-triazole-3-carboxamide]	5 to 10	5 to 10
Cc1ccccc1Cn1cnc(C(=O)NC2CCc3cc(C#Cc4cnn(C(F)F)c4)cc4c3N(CC4)C2=O)n1 (stereo not shown) [III-22, N-(9-((1-(difluoromethyl)-1H-pyrazol-4-yl)ethynyl)-4-oxo-1,2,3,4,6,7-hexahydroazepino[3,2,1-hi]indol-3-yl)-1-(2-methylbenzyl)-1H-1,2,4-triazole-3-carboxamide]	5 to 10	10 to 100
